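Compound exposure: 48 hours, 5 concentrations, 96-well plates. GI50 = concentration required for 50% inhibition of growth. At the TGI there is no net growth.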
Experiments:
Assay in all cases: inhibition of tumour cell growth, NCI panel, 48 h
[1] = system: OVCAR-4 ovarian
[2] = system: SK-MEL-5 melanoma
[3] = system: MALME-3M melanoma
[4] = system: NCI/ADR-RES ovarian
[5] = system: OVCAR-8 ovarian
[6] = system: UO-31 renal
[7] = system: ACHN renal
[8] = system: CAKI-1 renal
[9] = system: HOP-92 NSCLC
[10] = system: SK-MEL-2 melanoma
[11] = system: CCRF-CEM leukemia
[12] = system: UACC-62 melanoma
[13] = system: A549 NSCLC
[14] = system: NCI-H23 lung
[15] = system: SK-OV-3 ovarian
[16] = system: HCT-15 colon
[17] = system: RPMI-8226 leukemia
[18] = system: HL-60(TB) leukemia
[19] = system: BT-549 breast
[20] = system: SW-620 colon
[21] = system: MCF7 breast
[22] = system: RXF 393 renal
[23] = system: SF-539 CNS
[24] = system: MDA-MB-231 breast
[25] = system: SNB-19 CNS
[26] = system: HCC-2998 colon
[27] = system: IGROV1 ovarian
[28] = system: UACC-257 melanoma
[29] = system: KM12 colon
[30] = system: OVCAR-3 ovarian
[31] = system: SF-268 CNS
[32] = system: EKVX NSCLC
[33] = system: DU-145 prostate
[34] = system: NCI-H522 lung
[35] = system: SF-295 CNS
[36] = system: COLO 205 colon
[37] = system: SR leukemia
[38] = system: HCT-116 colon
[39] = system: SK-MEL-28 melanoma
[40] = system: 786-0 renal
[41] = system: TK-10 renal
[42] = system: HOP-62 NSCLC
[43] = system: HT29 colon
[44] = system: U251 CNS
[45] = system: SNB-75 CNS
[46] = system: A498 renal
[47] = system: LOX IMVI melanoma
[48] = system: K-562 leukemia
[49] = system: NCI-H460 lung
[50] = system: OVCAR-5 ovarian
[51] = system: MDA-MB-435
[52] = system: NCI-H226 lung
[53] = system: SN12C renal
[54] = system: HS 578T breast

For `COC(=O)N1CCN(CCNCc2ccc(NC(=O)c3ccc(C)c(C#Cc4cnc5cccnn45)c3)cc2C(F)(F)F)CC1`, the GI50 [1] was 1930 nM, the TGI [1] was 5860 nM and the GI50 [2] was 1580 nM. It also gave a TGI [2] of 2970 nM, a GI50 [3] of 893 nM and a TGI [3] of 2410 nM. For the same molecule, the GI50 [4] was 2020 nM, the TGI [4] was 6240 nM and the GI50 [5] was 1820 nM. The TGI [5] was 4350 nM, the GI50 [6] was 1340 nM and the TGI [6] was 3140 nM. For the same molecule, the GI50 [7] was 2320 nM, the TGI [7] was 6850 nM and the GI50 [8] was 1890 nM. It also gave a TGI [8] of 4710 nM, a GI50 [9] of 867 nM and a TGI [9] of 2830 nM. The GI50 [10] was 1150 nM, the TGI [10] was 2800 nM and the GI50 [11] was 1460 nM. It also gave a TGI [11] of 8220 nM, a GI50 [12] of 1430 nM and a TGI [12] of 3040 nM. It also gave a GI50 [13] of 1690 nM, a TGI [13] of 4210 nM and a GI50 [14] of 1170 nM. It also gave a TGI [14] of 2880 nM, a GI50 [15] of 2070 nM and a TGI [15] of 3850 nM. For the same molecule, the GI50 [16] was 1100 nM, the TGI [16] was 3070 nM and the GI50 [17] was 1370 nM. It also gave a TGI [17] of 4320 nM, a GI50 [18] of 342 nM and a TGI [18] of 3220 nM. The GI50 [19] was 2400 nM, the TGI [19] was 4950 nM and the GI50 [20] was 1320 nM. For the same molecule, the TGI [20] was 3410 nM, the GI50 [21] was 1470 nM and the TGI [21] was 3060 nM. The GI50 [22] was 1730 nM, the TGI [22] was 3210 nM and the GI50 [23] was 1400 nM. For the same molecule, the TGI [23] was 2780 nM, the GI50 [24] was 1260 nM and the TGI [24] was 3250 nM. It also gave a GI50 [25] of 2530 nM, a TGI [25] of 5890 nM and a GI50 [26] of 1480 nM. It also gave a TGI [26] of 2860 nM, a GI50 [27] of 1410 nM and a TGI [27] of 3430 nM. For the same molecule, the GI50 [28] was 1530 nM, the TGI [28] was 3270 nM and the GI50 [29] was 434 nM. For the same molecule, the TGI [29] was 1730 nM, the GI50 [30] was 2000 nM and the TGI [30] was 4200 nM. The GI50 [31] was 2080 nM, the TGI [31] was 4780 nM and the GI50 [32] was 2040 nM. It also gave a TGI [32] of 4390 nM, a GI50 [33] of 2220 nM and a TGI [33] of 4770 nM. For the same molecule, the GI50 [34] was 1510 nM, the TGI [34] was 3230 nM and the GI50 [35] was 1540 nM. It also gave a TGI [35] of 3030 nM, a GI50 [36] of 1190 nM and a TGI [36] of 2790 nM. The GI50 [37] was 796 nM, the TGI [37] was 22100 nM and the GI50 [38] was 630 nM. The TGI [38] was 2320 nM, the GI50 [39] was 1480 nM and the TGI [39] was 2890 nM. The GI50 [40] was 1450 nM, the TGI [40] was 3540 nM and the GI50 [41] was 2210 nM. The TGI [41] was 5070 nM, the GI50 [42] was 1590 nM and the TGI [42] was 3430 nM. It also gave a GI50 [43] of 769 nM, a TGI [43] of 2320 nM and a GI50 [44] of 1530 nM. For the same molecule, the TGI [44] was 3320 nM, the GI50 [45] was 372 nM and the TGI [45] was 1950 nM. The GI50 [46] was 2800 nM, the TGI [46] was 7350 nM and the GI50 [47] was 743 nM. The TGI [47] was 2050 nM, the TGI [48] was greater than 100000 nM and the GI50 [49] was 1850 nM. The TGI [49] was 3760 nM, the GI50 [50] was 1390 nM and the TGI [50] was 3970 nM. It also gave a GI50 [51] of 1080 nM, a TGI [51] of 2390 nM and a GI50 [52] of 1390 nM. The TGI [52] was 5320 nM, the GI50 [53] was 1680 nM and the TGI [53] was 4080 nM. For the same molecule, the GI50 [54] was 1720 nM and the TGI [54] was 5040 nM.

— PubChem BioAssay (NCI)
